Assay results as given in the NIST ThermoML archive (doi:10.1021/je900550v).

Conditions: 101.33 kPa, Liquid; for speed of sound: Pulse-echo method; for mass density: Vibrating tube method

CC(C)C(=O)[O-].C[NH2+]CCO [2-hydroxy-N-methylethanaminium isobutyrate]
Conditions | mass density [kg/m3] | speed of sound [m/s] | viscosity [mPa·s]
293.15 K | 1046.53 | 1625.5 | –
293.4 K | 1046.37 | 1624.8 | –
293.65 K | 1046.21 | 1624.1 | –
293.9 K | 1046.06 | 1623.4 | –
294.15 K | 1045.9 | 1622.7 | –
294.4 K | 1045.74 | 1622 | –
294.65 K | 1045.59 | 1621.2 | –
294.9 K | 1045.43 | 1620.5 | –
295.15 K | 1045.27 | 1619.8 | –
295.4 K | 1045.11 | 1619.1 | –
295.65 K | 1044.96 | 1618.4 | –
295.9 K | 1044.8 | 1617.7 | –
296.15 K | 1044.63 | 1617 | –
296.4 K | 1044.48 | 1616.3 | –
296.65 K | 1044.32 | 1615.6 | –
296.9 K | 1044.17 | 1614.9 | –
297.15 K | 1044.01 | 1614.2 | –
297.4 K | 1043.84 | 1613.4 | –
297.65 K | 1043.68 | 1612.7 | –
297.9 K | 1043.52 | 1612 | –
298.15 K | 1043.37 | 1611.3 | 163.08
298.4 K | 1043.2 | 1610.6 | –
298.65 K | 1043.05 | 1609.9 | –
298.9 K | 1042.89 | 1609.2 | –
299.15 K | 1042.73 | 1608.5 | –
299.4 K | 1042.57 | 1607.8 | –
299.65 K | 1042.41 | 1607.1 | –
299.9 K | 1042.25 | 1606.3 | –
300.15 K | 1042.09 | 1605.6 | –
300.4 K | 1041.93 | 1604.9 | –
300.65 K | 1041.77 | 1604.2 | –
300.9 K | 1041.61 | 1603.5 | –
301.15 K | 1041.45 | 1602.8 | –
301.4 K | 1041.29 | 1602.1 | –
301.65 K | 1041.13 | 1601.4 | –
301.9 K | 1040.96 | 1600.7 | –
302.15 K | 1040.81 | 1600 | –
302.4 K | 1040.64 | 1599.3 | –
302.65 K | 1040.49 | 1598.6 | –
302.9 K | 1040.32 | 1597.8 | –
303.15 K | 1040.17 | 1597.2 | 124.67
303.4 K | 1040 | 1596.4 | –
303.65 K | 1039.84 | 1595.7 | –
303.9 K | 1039.68 | 1595 | –
304.15 K | 1039.52 | 1594.3 | –
304.4 K | 1039.36 | 1593.6 | –
304.65 K | 1039.19 | 1592.9 | –
304.91 K | 1039.03 | 1592.2 | –
305.15 K | 1038.87 | 1591.5 | –
305.4 K | 1038.71 | 1590.8 | –
305.65 K | 1038.55 | 1590.1 | –
305.9 K | 1038.39 | 1589.4 | –
306.15 K | 1038.23 | 1588.7 | –
306.4 K | 1038.06 | 1588 | –
306.65 K | 1037.9 | 1587.3 | –
306.9 K | 1037.74 | 1586.6 | –
307.15 K | 1037.58 | 1585.9 | –
307.4 K | 1037.41 | 1585.2 | –
307.65 K | 1037.25 | 1584.5 | –
307.9 K | 1037.09 | 1583.8 | –
308.15 K | – | – | 98.28
